{"source": "patent US9486507B2", "about": "“Pro-coagulant compounds and methods of use thereof” (priority 2011, dated 2016)", "key": {"[1]": {"test_system": "FVIII deficient human plasma", "assay": "Rotational thromboelastometry (ROTEM) in FVIII-deficient human plasma", "assay_type": "biochemical"}, "platelets": {"test_system": "platelets", "assay": "Platelet aggregation (aggregometer)", "assay_type": "cell-based", "from_the_text": "ADP was used as a positive control for platelet aggregation."}, "FIXa [2]": {"target": "T1, FIXa (Homo sapiens, UniProt P00740)", "T1 sequence (P00740 47-191 limits assumed)": "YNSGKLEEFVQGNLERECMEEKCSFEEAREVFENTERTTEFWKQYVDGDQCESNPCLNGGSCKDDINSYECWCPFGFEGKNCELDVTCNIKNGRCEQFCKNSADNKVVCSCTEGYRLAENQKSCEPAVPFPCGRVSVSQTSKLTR", "T1 sequence (P00740 227-461 limits assumed)": "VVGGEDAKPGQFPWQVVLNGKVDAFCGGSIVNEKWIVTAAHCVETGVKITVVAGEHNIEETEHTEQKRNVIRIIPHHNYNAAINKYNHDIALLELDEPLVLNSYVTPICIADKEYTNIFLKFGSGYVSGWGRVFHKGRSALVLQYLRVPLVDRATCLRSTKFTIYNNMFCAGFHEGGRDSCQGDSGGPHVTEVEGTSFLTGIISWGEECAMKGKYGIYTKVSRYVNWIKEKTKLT", "assay": "FXa generation assay with human FIXa", "assay_type": "biochemical", "design": "purchased Haematologic Technologies"}, "FIXa [3]": {"target": "T1, FIXa", "assay": "Heparin accelerated FIXa-AT complex formation assay", "assay_type": "biochemical", "design": "purchased Haematologic Technologies", "conditions": "for % FIXa-AT complex formation: with heparin", "experimental": "Competition studies between the pro-coagulant peptides and heparin: compounds of the present disclosure were tested in a heparin competition assay in an effort to further map the peptide's binding site on FIXa. FIXa inactivation by antithrombin (AT) was assessed by gel electrophoresis in the presence of heparin and varying procoagulant peptide concentrations. The rate of FIXa-AT complex formation was quantified over a 15 minute time course. […] The samples were incubated at 37° C. in a water bath and 12.5 μL aliquots were removed at each time point (0.5, 2, 5, 10, 15 min) and immediately mixed with 12.5 μL SDS 2× non-reducing sample buffer. The samples were heated at 90° C. for 3 min and loaded onto a 4-20% BioRad gel (20 μL/lane). The gel was run at 300V for 25 min, and the bands were quantified using Quantity One software from BioRad."}, "FIXa [4]": {"target": "T1, FIXa", "assay": "Heparin accelerated FIXa-AT complex formation assay", "assay_type": "biochemical", "design": "purchased Haematologic Technologies", "conditions": "with heparin, 0 min"}, "[5]": {"conditions": "FVIII-deficient plasma (containing platelets), 10 μM"}, "[6]": {"conditions": "FVIII-deficient plasma, compound 5 2.5 μM + FVIIa-Fc 10 IU/mL"}, "[7]": {"conditions": "FVIII-deficient plasma, compound 5 2.5 μM + FVIIa-Fc 20 IU/mL"}, "[8]": {"conditions": "human HemA plasma, 5 μM, anti-FVIII pab +"}, "[9]": {"conditions": "human HemA plasma, 5 μM, anti-FVIII pab −"}, "[10]": {"conditions": "human HemA plasma, 10 μM, anti-FVIII pab +"}, "[11]": {"conditions": "human HemA plasma, 10 μM, anti-FVIII pab −"}}, "note": "Several values for one entry are separate records, joined by “and”; a condition that tells them apart may be missing. Equal values may be shown once."}
{"substance": "rRAPGKLTCLASYCWLFWTGIA [Compound 5]", "values": [{"measurement": "Clotting time", "setting": "[1]; [5]", "result": "277 s and 298 s"}, {"measurement": "α-angle, degrees", "setting": "[1]; [5]", "result": "34 degrees and 27 degrees"}, {"measurement": "Clotting time", "setting": "[1]; [6]", "result": 303.5, "unit": "s"}, {"measurement": "α-angle", "setting": "[1]; [6]", "result": 38.5, "unit": "degrees"}, {"measurement": "Clotting time", "setting": "[1]; [7]", "result": 115, "unit": "s"}, {"measurement": "α-angle", "setting": "[1]; [7]", "result": 63, "unit": "degrees"}, {"measurement": "calcium dependence of procoagulant effect (clotting time)", "setting": "[1]; compound 5 2.5 and 5 μM, 0 to about 16 mM calcium", "result": "sensitive to the calcium concentration"}, {"measurement": "Clotting time", "setting": "[1]; [8]", "result": "197 s and 194 s"}, {"measurement": "α-angle, degrees", "setting": "[1]; [8]", "result": "48 degrees and 53 degrees"}, {"measurement": "Clotting time", "setting": "[1]; [9]", "result": "154 s and 164 s"}, {"measurement": "α-angle, degrees", "setting": "[1]; [9]", "result": "51 degrees and 58 degrees"}, {"measurement": "Clotting time", "setting": "[1]; [10]", "result": "108 s and 110 s"}, {"measurement": "α-angle, degrees", "setting": "[1]; [10]", "result": "67 degrees and 69 degrees"}, {"measurement": "Clotting time", "setting": "[1]; [11]", "result": "101 s and 105 s"}, {"measurement": "α-angle, degrees", "setting": "[1]; [11]", "result": "70 degrees and 68 degrees"}, {"measurement": "effect on ADP-activated platelets", "setting": "platelets; 30 μM", "result": "only a moderate effect"}, {"measurement": "induction of platelet aggregation", "setting": "platelets; compound 5 about 30 μM, compound 22 10 μM and 30 μM", "result": "did not induce platelet aggregation"}, {"measurement": "effect on ADP-activated platelets", "setting": "platelets; concentration of up to 10 μM", "result": "did not exhibit a significant effect"}, {"measurement": "Vmax", "setting": "FIXa [2]; FXa generation assay, 10 nM hFIXa, 100 nM hFX, class symbols", "result": "(+++) ((+++)>2)"}, {"measurement": "increase of FIXa catalytic activity, % of control", "setting": "FIXa [2]; absence of PL", "result": "about 80%"}, {"measurement": "inactivation of FIXa by AT", "setting": "FIXa [3]; absence of heparin", "result": "unaffected"}, {"measurement": "heparin-catalyzed FIXa-AT complex formation", "setting": "FIXa [3]; heparin 100 nM, compound 5 0.1, 1, 10 μM", "result": "inhibited the FIXa-AT complex formation in a concentration-dependent manner"}, {"measurement": "% FIXa-AT complex formation", "setting": "FIXa [3]; Compound 5 0.1 μM, 0.5 min", "result": 57, "unit": "%"}, {"measurement": "% FIXa-AT complex formation", "setting": "FIXa [3]; Compound 5 0.1 μM, 2 min", "result": 72, "unit": "%"}, {"measurement": "% FIXa-AT complex formation", "setting": "FIXa [3]; Compound 5 0.1 μM, 5 min", "result": 82, "unit": "%"}, {"measurement": "% FIXa-AT complex formation", "setting": "FIXa [3]; Compound 5 0.1 μM, 10 min", "result": 82, "unit": "%"}, {"measurement": "% FIXa-AT complex formation", "setting": "FIXa [3]; Compound 5 0.1 μM, 15 min", "result": 83, "unit": "%"}, {"measurement": "% FIXa-AT complex formation", "setting": "FIXa [3]; Compound 5 1 μM, 0.5 min", "result": 30, "unit": "%"}, {"measurement": "% FIXa-AT complex formation", "setting": "FIXa [3]; Compound 5 1 μM, 2 min", "result": 45, "unit": "%"}, {"measurement": "% FIXa-AT complex formation", "setting": "FIXa [3]; Compound 5 1 μM, 5 min", "result": 55, "unit": "%"}, {"measurement": "% FIXa-AT complex formation", "setting": "FIXa [3]; Compound 5 1 μM, 10 min", "result": 70, "unit": "%"}, {"measurement": "% FIXa-AT complex formation", "setting": "FIXa [3]; Compound 5 1 μM, 15 min", "result": 74, "unit": "%"}, {"measurement": "% FIXa-AT complex formation", "setting": "FIXa [3]; Compound 5 10 μM, 0.5 min", "result": 18, "unit": "%"}, {"measurement": "% FIXa-AT complex formation", "setting": "FIXa [3]; Compound 5 10 μM, 2 min", "result": 28, "unit": "%"}, {"measurement": "% FIXa-AT complex formation", "setting": "FIXa [3]; Compound 5 10 μM, 5 min", "result": 41, "unit": "%"}, {"measurement": "% FIXa-AT complex formation", "setting": "FIXa [3]; Compound 5 10 μM, 10 min", "result": 54, "unit": "%"}, {"measurement": "% FIXa-AT complex formation", "setting": "FIXa [3]; Compound 5 10 μM, 15 min", "result": 62, "unit": "%"}, {"measurement": "% FIXa-AT complex formation", "setting": "FIXa [4]; Compound 5 0.1 μM", "result": 0, "unit": "%"}, {"measurement": "% FIXa-AT complex formation", "setting": "FIXa [4]; Compound 5 1 μM", "result": 0, "unit": "%"}, {"measurement": "% FIXa-AT complex formation", "setting": "FIXa [4]; Compound 5 10 μM", "result": 0, "unit": "%"}]}
